Assay results: patent publication US11173162B2, “Bicyclic heterocycles as FGFR4 inhibitors” (Incyte Corporation, priority 2015, dated 2021)

What was measured:
FGFR4 = FGFR4 (Homo sapiens (Human), UniProt P22455); assay: FGFR Enzymatic Assay (FRET peptide phosphorylation), FGFR4; type: biochemical
Description: (§1) The inhibitor potency of the exemplified compounds was measured in an enzyme assay that measures peptide phosphorylation using FRET measurements to detect product formation. Inhibitors were serially diluted in DMSO and a volume of 0.5 μL was transferred to the wells of a 384-well plate.
The enzymes were purchased from Millipore or Invitrogen.
(§2) GraphPad prism3 was used to analyze the data.

FGFR3 enzyme = assay: FGFR Enzymatic Assay (FRET peptide phosphorylation), FGFR3; type: biochemical; details: IC50 ratio showing FGFR3 selectivity; Table 2A, pre-incubated for 4 hours
Description: as §1, §2

[1] = IC50 ratio showing FGFR4 selectivity, Table 2, pre-incubated for 4 hours
[2] = ratio of IC50 data showing FGFR4 selectivity, Table 4, pre-incubated for 5 to 10 minutes

Chain of FGFR4 (P22455 22-802): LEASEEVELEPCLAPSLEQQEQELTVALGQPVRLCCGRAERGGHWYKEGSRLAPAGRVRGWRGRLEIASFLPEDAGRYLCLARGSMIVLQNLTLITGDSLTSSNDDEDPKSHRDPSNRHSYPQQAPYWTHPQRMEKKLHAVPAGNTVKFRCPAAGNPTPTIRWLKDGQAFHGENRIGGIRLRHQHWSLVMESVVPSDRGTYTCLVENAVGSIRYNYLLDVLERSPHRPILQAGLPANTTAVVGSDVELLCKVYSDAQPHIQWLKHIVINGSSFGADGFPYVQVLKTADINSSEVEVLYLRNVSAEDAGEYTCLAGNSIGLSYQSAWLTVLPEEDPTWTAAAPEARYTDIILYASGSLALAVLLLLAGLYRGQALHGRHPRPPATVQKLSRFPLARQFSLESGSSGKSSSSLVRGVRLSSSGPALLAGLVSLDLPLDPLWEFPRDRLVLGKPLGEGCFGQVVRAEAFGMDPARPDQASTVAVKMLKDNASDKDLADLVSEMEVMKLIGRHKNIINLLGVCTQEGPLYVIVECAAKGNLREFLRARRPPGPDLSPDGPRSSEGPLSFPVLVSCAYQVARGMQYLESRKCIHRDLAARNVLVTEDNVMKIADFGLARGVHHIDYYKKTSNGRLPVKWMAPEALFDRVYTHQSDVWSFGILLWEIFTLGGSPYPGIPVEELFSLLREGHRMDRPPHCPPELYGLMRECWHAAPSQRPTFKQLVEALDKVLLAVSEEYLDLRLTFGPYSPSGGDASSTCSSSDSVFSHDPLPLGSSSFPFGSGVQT

Row | Compound | FGFR1/FGFR4 (FGFR4; [1]) | FGFR2/FGFR4 (FGFR4; [1]) | FGFR3/FGFR4 (FGFR4; [1]) | FGFR1/FGFR3 (FGFR3 enzyme) | FGFR4/FGFR3 (FGFR3 enzyme) | FGFR1/FGFR4 (FGFR4; [2]) | FGFR2/FGFR4 (FGFR4; [2]) | FGFR3/FGFR4 (FGFR4; [2])
1 | COc1cc(OC)c(F)c(N2Cc3cnc(-c4cc(N)ccc4C#N)cc3C3(CC3)C2=O)c1F [Example 3, 4-amino-2-(2′-(2,6-difluoro-3,5-dimethoxyphenyl)-3′-oxo-2′,3′-dihydro-1′H-spiro[cyclopropane-1,4′-[2,7]naphthyridine]-6′-yl)benzonitrile] | >25 | >25 | >10 | – | – | >25 | >25 | >25
2 | COc1cc(OC)c(F)c(N2Cc3cnc(-c4cncc(Cl)c4)cc3C3(CC3)C2=O)c1F [Example 11, 6′-(5-chloropyridin-3-yl)-2′-(2,6-difluoro-3,5-dimethoxyphenyl)-1′H-spiro[cyclopropane-1,4′-[2,7]naphthyridin]-3′(2′H)-one] | >25 | >25 | >10 | >1 | – | >50 | >20 | >25
3 | COc1cc(OC)c(F)c(N2Cc3cnc(-c4cncc(F)c4)cc3C3(CC3)C2=O)c1F [Example 5, 2′-(2,6-difluoro-3,5-dimethoxyphenyl)-6′-(5-fluoropyridin-3-yl)-1′H-spiro[cyclopropane-1,4′-[2,7]naphthyridin]-3′(2′H)-one] | >10 | >5 | >1 | >3 | – | >10 | >5 | >4
4 | COc1cncc(-c2cc3c(cn2)CN(c2c(F)c(OC)cc(OC)c2F)C(=O)C32CC2)c1 [Example 10, 2′-(2,6-difluoro-3,5-dimethoxyphenyl)-6′-(5-methoxypyridin-3-yl)-1′H-spiro[cyclopropane-1,4′-[2,7]naphthyridin]-3′(2′H)-one] | >25 | >25 | >10 | >1 | – | >25 | >10 | >10
5 | COc1cc(OC)c(F)c(N2Cc3cnc(-c4cc(N)c(F)cc4C)cc3C3(CC3)C2=O)c1F [Example 2, 6′-(5-amino-4-fluoro-2-methylphenyl)-2′-(2,6-difluoro-3,5-dimethoxyphenyl)-1′H-spiro[cyclopropane-1,4′-[2,7]naphthyridin]-3′(2′H)-one] | >10 | >10 | >10 | – | – | >10 | >10 | >10
6 | COc1cc(OC)c(F)c(N2Cc3cnc(-c4cn(C)nc4C)cc3N(CC3CCOCC3)C2=O)c1F [Example 37, 3-(2,6-difluoro-3,5-dimethoxyphenyl)-7-(1,3-dimethyl-1H-pyrazol-4-yl)-1-((tetrahydro-2H-pyran-4-yl)methyl)-3,4-dihydropyrido[4,3-d]pyrimidin-2(1H)-one] | – | – | – | >1 | >10 | – | – | –
7 | CCN1C(=O)N(c2c(F)c(OC)cc(OC)c2F)Cc2cnc(-c3ccccc3)cc21 [Example 22, 3-(2,6-difluoro-3,5-dimethoxyphenyl)-1-ethyl-7-phenyl-3,4-dihydropyrido[4,3-d]pyrimidin-2(1H)-one] | – | – | – | >5 | – | – | – | –
8 | COc1cc(OC)c(F)c(N2Cc3cnc(-c4cn(CCN5CCOCC5)nc4C)cc3C3(CC3)C2=O)c1F [Example 52, 2′-(2,6-difluoro-3,5-dimethoxyphenyl)-6′-(3-methyl-1-(2-morpholinoethyl)-1H-pyrazol-4-yl)-1′H-spiro[cyclopropane-1,4′-[2,7]naphthyridin]-3′(2′H)-one] | – | – | – | >10 | >1 | – | – | –
9 | COc1cc(OC)c(F)c(N2Cc3cnc(-c4cc(N)ccc4C)cc3C3(CC3)C2=O)c1F [Example 1, 6′-(5-amino-2-methylphenyl)-2′-(2,6-difluoro-3,5-dimethoxyphenyl)-1^1H-spiro[cyclopropane-1,4′-[2,7]naphthyridin]-3′(2′H)-one] | >25 | >25 | >25 | – | – | >25 | >25 | >50
10 | COc1cc(OC)c(F)c(N2Cc3cnc(-c4ccc(C#N)nc4)cc3C3(CC3)C2=O)c1F [Example 20, 5-(2′-(2,6-difluoro-3,5-dimethoxyphenyl)-3′-oxo-2′,3′-dihydro-1′H-spiro[cyclopropane-1,4′-[2,7]naphthyridine]-6′-yl)picolinonitrile] | – | – | – | >5 | – | – | – | –
11 | COc1cc(OC)c(F)c(N2Cc3cnc(-c4cn(C)nc4C)cc3N(Cc3cc(C)no3)C2=O)c1F [Example 35, 3-(2,6-difluoro-3,5-dimethoxyphenyl)-7-(1,3-dimethyl-1H-pyrazol-4-yl)-1-((3-methylisoxazol-5-yl)methyl)-3,4-dihydropyrido[4,3-d]pyrimidin-2(1H)-one] | – | – | – | >5 | >10 | – | – | –
12 | COC(=O)N1CCC(N2C(=O)N(c3c(F)c(OC)cc(OC)c3F)Cc3cnc(-c4cn(C)nc4C)cc32)CC1 [Example 122, Methyl 4-(3-(2,6-difluoro-3,5-dimethoxyphenyl)-7-(1,3-dimethyl-1H-pyrazol-4-yl)-2-oxo-3,4-dihydropyrido[4,3-d]pyrimidin-1(2H)-yl)piperidine-1-carboxylate] | – | – | – | >5 | >5 | – | – | –

Now from value to compound, other results behind:

Row | FGFR1/FGFR4 (FGFR4; [1]) | FGFR2/FGFR4 (FGFR4; [1]) | FGFR3/FGFR4 (FGFR4; [1]) | FGFR1/FGFR3 (FGFR3 enzyme) | FGFR4/FGFR3 (FGFR3 enzyme) | Compound | FGFR1/FGFR4 (FGFR4; [2]) | FGFR2/FGFR4 (FGFR4; [2]) | FGFR3/FGFR4 (FGFR4; [2])
13 | >10 | >10 | >10 | – | – | COc1cc(OC)c(F)c(N2Cc3cnc(-c4[nH]ncc4C#N)cc3C3(CC3)C2=O)c1F [Example 171, 5-(2′-(2,6-difluoro-3,5-dimethoxyphenyl)-3′-oxo-2′,3′-dihydro-1′H-spiro[cyclopropane-1,4′-[2,7]naphthyridine]-6′-yl)-1H-pyrazole-4-carbonitrile] | – | – | –
14 | >100 | >100 | >50 | – | – | COc1cc(OC)c(F)c(N2Cc3cnc(-c4nn(CC5CCOCC5)cc4C#N)cc3C3(CC3)C2=O)c1F [Example 173, 3-(2′-(2,6-difluoro-3,5-dimethoxyphenyl)-3′-oxo-2′,3′-dihydro-1′H-spiro[cyclopropane-1,4′-[2,7]naphthyridine]-6′-yl)-1-((tetrahydro-2H-pyran-4-yl)methyl)-1H-pyrazole-4-carbonitrile] | – | – | –
15 | >100 | >10 | >25 | – | – | COc1cc(OC)c(F)c(N2Cc3cnc(-c4nn(CC#N)cc4C#N)cc3C3(CC3)C2=O)c1F [Example 174, 1-(cyanomethyl)-3-(2′-(2,6-difluoro-3,5-dimethoxyphenyl)-3′-oxo-2′,3′-dihydro-1′H-spiro[cyclopropane-1,4′-[2,7]naphthyridine]-6′-yl)-1H-pyrazole-4-carbonitrile] | – | – | –
16 | – | – | – | >5 | >1 | COc1cc(OC)c(F)c(N2Cc3cnc(-c4cn(C5CCS(=O)(=O)C5)nc4C)cc3C3(CC3)C2=O)c1F (stereo not drawn) [Example 54, 2′-(2,6-difluoro-3,5-dimethoxyphenyl)-6′-[1-(1,1-dioxidotetrahydro-3-thienyl)-3-methyl-1H-pyrazol-4-yl]-1′,2′-dihydro-3′H-spiro[cyclopropane-1,4′-[2,7]naphthyridin]-3′-one] | – | – | –
17 | – | – | – | >5 | >10 | COc1cc(OC)c(F)c(N2Cc3cnc(-c4cn(C)nc4C)cc3N(c3cn[nH]c3)C2=O)c1F [Example 129, 3-(2,6-difluoro-3,5-dimethoxyphenyl)-7-(1,3-dimethyl-1H-pyrazol-4-yl)-1-(1H-pyrazol-4-yl)-3,4-dihydropyrido[4,3-d]pyrimidin-2(1H)-one] | – | – | –
18 | – | – | – | >3 | >5 | CNS(=O)(=O)c1cccc(N2C(=O)N(c3c(F)c(OC)cc(OC)c3F)Cc3cnc(-c4cn(C)nc4C)cc32)c1 [Example 111, 3-(3-(2,6-difluoro-3,5-dimethoxyphenyl)-7-(1,3-dimethyl-1H-pyrazol-4-yl)-2-oxo-3,4-dihydropyrido[4,3-d]pyrimidin-1(2H)-yl)-N-methylbenzenesulfonamide] | – | – | –
19 | – | – | – | >5 | >10 | COc1cc(OC)c(F)c(N2Cc3cnc(-c4cn(C)nc4C)cc3N(Cc3cccnn3)C2=O)c1F [Example 88, 3-(2,6-difluoro-3,5-dimethoxyphenyl)-7-(1,3-dimethyl-1H-pyrazol-4-yl)-1-(pyridazin-3-ylmethyl)-3,4-dihydropyrido[4,3-d]pyrimidin-2(1H)-one] | – | – | –
20 | – | – | – | >5 | >3 | COc1cc(OC)c(F)c(N2Cc3cnc(-c4cn(C)nc4C)cc3N(c3ccc(C#N)cn3)C2=O)c1F [Example 79, 6-(3-(2,6-difluoro-3,5-dimethoxyphenyl)-7-(1,3-dimethyl-1H-pyrazol-4-yl)-2-oxo-3,4-dihydropyrido[4,3-d]pyrimidin-1(2H)-yl)nicotinonitrile] | – | – | –
21 | – | – | – | >5 | >10 | COc1cc(OC)c(F)c(N2Cc3cnc(-c4cn(C)nc4C)cc3N(c3ccc(CC#N)cc3)C2=O)c1F [Example 97, 2-(4-(3-(2,6-difluoro-3,5-dimethoxyphenyl)-7-(1,3-dimethyl-1H-pyrazol-4-yl)-2-oxo-3,4-dihydropyrido[4,3-d]pyrimidin-1(2H)-yl)phenyl)acetonitrile] | – | – | –
22 | – | – | – | >3 | >3 | COc1cc(OC)c(F)c(N2Cc3cnc(-c4cnn(CC5CN(C(C)=O)C5)c4)cc3C3(CC3)C2=O)c1F [Example 167, 6′-(1-((1-acetylazetidin-3-yl)methyl)-1H-pyrazol-4-yl)-2′-(2,6-difluoro-3,5-dimethoxyphenyl)-1′H-spiro[cyclopropane-1,4′-[2,7]naphthyridin]-3′(2′H)-one] | – | – | –
23 | >50 | >25 | >10 | – | – | COc1cc(OC)c(F)c(N2Cc3cnc(-c4nn(C)cc4C#N)cc3C3(CC3)C2=O)c1F [Example 172, 3-(2′-(2,6-difluoro-3,5-dimethoxyphenyl)-3′-oxo-2′,3′-dihydro-1′H-spiro[cyclopropane-1,4′-[2,7]naphthyridine]-6′-yl)-1-methyl-1H-pyrazole-4-carbonitrile] | – | – | –
